Measured values as given in ChEMBL document CHEMBL5230122, “Natural products and other inhibitors of F1FO ATP synthase” (Eur J Med Chem, 2020).
Square brackets hold non-standard residues; d marks the D form. Peptide text beside a SMILES is read from it. * marks the point of attachment. X3 = CC(C)C[C@@H](CN1CCC[N+]2=C1CCC2)N*; Pip = O=C(O)[C@@H]1CCCCN1; Iva = CC[C@](C)(N)C(=O)O; Aib = CC(C)(N)C(=O)O; βAla = NCCC(=O)O

Columns and labels:
MCF7 = assay: Antiproliferative activity against human MCF7 cells assessed as reduction in cell viability incubated for 48 hrs by MTT assay; format: functional, cell-based; conditions: MCF7, 48 h
SMMC-7721 = assay: Antiproliferative activity against human SMMC-7721 cells assessed as reduction in cell viability incubated for 48 hrs by MTT assay; format: functional, cell-based; conditions: SMMC-7721, 48 h
SW480 = assay: Antiproliferative activity against human SW480 cells assessed as reduction in cell viability incubated for 48 hrs by MTT assay; format: functional, cell-based; conditions: SW480, 48 h
A549 = assay: Antiproliferative activity against human A549 cells assessed as reduction in cell viability incubated for 48 hrs by MTT assay; format: functional, cell-based; conditions: A549, 48 h
HL-60 = assay: Antiproliferative activity against human HL-60 cells assessed as reduction in cell viability incubated for 48 hrs by MTT assay; format: functional, cell-based; conditions: HL-60, 48 h
NCI-H292 = assay: Anticancer activity against human NCI-H292 cells assessed as reduction in cell proliferation incubated for 48 hrs by Calcein AM and Pluronic F-127 staining based fluorescence plate reader analysis; format: functional; conditions: NCI-H292, 48 h
Bos taurus = species on record: Bos taurus; assay: Inhibition of bovine F0F1-ATPase at 50 uM
HCT-116 = assay: Antiproliferative activity against human HCT-116 cells assessed as reduction in cell viability incubated for 72 hrs by MTT assay; format: functional, cell-based; conditions: HCT-116, 72 h
[1] = Antiproliferative activity against human U87G cells assessed as reduction in cell viability incubated for 72 hrs by MTT assay; format: functional, cell-based
MDA-MB-231 = assay: Antiproliferative activity against human MDA-MB-231 cells assessed as reduction in cell viability incubated for 48 hrs by MTT assay; format: functional, cell-based; conditions: MDA-MB-231, 48 h
[2] = Antiproliferative activity against human Keratinocyte assessed as inhibition of cell proliferation incubated for 2 days by Beckman Coulter analysis; format: functional, cell-based; conditions: 48 h
SNU-398 = assay: Anticancer activity against human SNU-398 cells expressing high level of SALL4 assessed as reduction in cell viability incubated for 72 hrs by CellTiter-Glo assay; format: functional, cell-based; conditions: SNU-398, 72 h

| SMILES | IC50 (MCF7) [µM] | IC50 (SMMC-7721) [µM] | IC50 (SW480) [µM] | IC50 (A549) [µM] | IC50 (HL-60) [µM] | IC50 (NCI-H292) [µM] | other results |
| --- | --- | --- | --- | --- | --- | --- | --- |
| CC[C@H]1O[C@@]2(C)[C@H](O)[C@@]1(C)O[C@@H](CC(O)/C=C/C=C/c1oc(=O)cc(OC)c1C)[C@@H]2O (some centres not stated) | > 40 | > 40 | > 40 | > 40 | > 40 | – | – |
| COC[C@@H](C[C@H]1O[C@@](O)(C[C@@H]2C[C@H](OC)CCC/C=C(C)/C=C/[C@@H](O[C@@H]3O[C@@H](C)[C@@H](OC)[C@@H](O)[C@@H]3O)[C@H](C)/C=C(C)/C=C(C)/C=C(\C)C(=O)O2)[C@H](C)[C@@H](O)[C@H]1C)O[C@H]1C[C@](C)(O)[C@@H](O[C@H]2C[C@@H](OC)[C@H](O)[C@@H](C)O2)[C@H](C)O1 | – | – | – | – | – | < 0.1 | – |
| COc1cc(/C=C/c2ccc(OCCCC[P+](c3ccccc3)(c3ccccc3)c3ccccc3)cc2)cc(OC)c1 | – | – | – | – | – | – | inhibition (Bos taurus): > 40% |
| CO[C@H]1[C@H](O[C@@H]2C[C@@H]3C[C@H](O)[C@]4(O)C(=O)O[C@@H](C[C@H](O)[C@@H]5C[C@H](C)[C@H](/C=C\C=C\[C@H](C)C[C@H](C2)O3)O5)[C@H]4O)O[C@@H](C)[C@H](OCCCC=O)[C@H]1OCCCC=O | – | – | – | – | – | – | IC50 (HCT-116): > 3 µM; IC50 [1]: > 3 µM |
| COC[C@@H](C[C@H]1O[C@@](O)([C@H](O)[C@@H]2C[C@H](OC)[C@@H](O)CC/C=C(C)/C=C/[C@@H](O[C@@H]3O[C@@H](C)[C@H](OC)[C@@H](O)[C@@H]3O)[C@H](C)/C=C/C=C(C)/C=C(\C)C(=O)O2)[C@H](C)[C@@H](O)[C@H]1C)O[C@H]1C[C@](C)(O)[C@@H](O[C@H]2C[C@@H](OC)[C@H](O)[C@@H](C)O2)[C@H](C)O1 | – | – | – | – | – | 0.11 | – |
| CC[C@H]1O[C@@]2(C)[C@H](OC(C)=O)[C@@]1(C)O[C@@H](C(O)/C=C/C(O)/C=C/c1oc(=O)cc(OC)c1C)[C@@H]2O (some centres not stated) | > 40 | 18.3 | 14.4 | > 40 | > 40 | – | – |
| COC[C@@H](C[C@H]1O[C@@](O)([C@H](O)[C@@H]2C[C@H](OC)CCC/C=C(C)/C=C/[C@@H](O[C@@H]3O[C@@H](C)[C@H](OC)[C@@H](O)[C@@H]3O)[C@H](C)/C=C(C)/C=C(C)/C=C(\C)C(=O)O2)[C@H](C)[C@@H](O)[C@H]1C)O[C@H]1C[C@](C)(O)[C@@H](O[C@H]2C[C@@H](OC)[C@H](O)[C@@H](C)O2)[C@H](C)O1 | – | – | – | – | – | 0.007 | – |
| COc1cc(/C=C/C=C/C=C/[C@]2(C)O[C@]3(C)[C@@H](O)[C@](C)(O[C@@H]3C)[C@H]2O)oc(=O)c1 | > 40 | > 40 | > 40 | > 40 | > 40 | – | – |
| COc1cc(=O)oc(/C=C/C=C/C=C/[C@@H]2O[C@]3(C)[C@@H](OC(C)=O)[C@](C)(O[C@@H]3[C@@H](C)O)[C@H]2O)c1C | – | – | – | – | – | – | IC50 (MDA-MB-231): 0.08 µM |
| CC[C@H]1O[C@@]2(C)[C@H](OC(C)=O)[C@@]1(C)O[C@@H](C(O)C(O)/C=C/C=C/c1oc(=O)cc(OC)c1C)[C@@H]2O (some centres not stated) | > 40 | > 40 | > 40 | > 40 | > 40 | – | – |
| COC[C@H](O)C[C@H]1O[C@@](O)(C[C@@H]2C[C@H](OC)CCC/C=C(C)/C=C/[C@@H](O[C@@H]3O[C@@H](C)[C@@H](OC)[C@@H](O)[C@@H]3O)[C@H](C)/C=C(C)/C=C(C)/C=C(\C)C(=O)O2)[C@H](C)[C@@H](O)[C@H]1C | – | – | – | – | – | > 1 | – |
| CN1C(=O)C(Cc2ccccc2-c2ccccc2)N=C(c2ccc(O)cc2)c2cc(Cl)ccc21 (configuration not stated) | – | – | – | – | – | – | EC50 [2]: 2.2 µM |
| COC[C@@H](C[C@H]1O[C@@](O)(C[C@@H]2C[C@H](OC)CCC/C=C(C)/C=C/[C@@H](O[C@@H]3O[C@@H](C)[C@H](OC)[C@@H](O)[C@@H]3O)[C@H](C)/C=C(C)/C=C(C)/C=C(\C)C(=O)O2)[C@H](C)[C@@H](O)[C@H]1C)O[C@H]1C[C@](C)(O)[C@@H](O[C@H]2C[C@@H](OC)[C@H](O)[C@@H](C)O2)[C@H](C)O1 | – | – | – | – | – | 0.024 | – |
| CC[C@H]1O[C@@]2(C)[C@H](OC(C)=O)[C@@]1(C)O[C@@H](CC(O)/C=C/C=C/c1oc(=O)cc(OC)c1C)[C@@H]2O (some centres not stated) | > 40 | > 40 | > 40 | > 40 | > 40 | – | – |
| CC[C@](C)(NC(=O)[C@H](CC(C)C)NC(=O)[C@H](C)NC(=O)C(C)(C)NC(=O)[C@@H]1CCCCN1C(=O)C(C)(C)NC(=O)C(C)(C)NC(=O)CNC(=O)CCNC(=O)[C@H](CC(C)C)NC(=O)[C@](C)(CC)NC(=O)[C@](C)(CC)NC(=O)[C@@H]1CCCCN1C(=O)C(C)(C)NC(=O)[C@@H]1CCCCN1C(C)=O)C(=O)N[C@@H](CC(C)C)CN1CCC[N+]2=C1CCC2 (Ac-[Pip][Aib][Pip][Iva][Iva]L[βAla]G[Aib][Aib][Pip][Aib]AL[Iva]-X3) | – | – | – | – | – | – | IC50 (SNU-398): 0.006 µM |
| COc1ccc(/C=C/c2cc(OC)cc(OCCCC[P+](c3ccccc3)(c3ccccc3)c3ccccc3)c2)cc1 | – | – | – | – | – | – | inhibition (Bos taurus): > 40% |
